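Cultured in 96-well plates, cells were exposed to test compound for 48 hours across five concentrations. GI50 is the concentration that inhibits growth by half. TGI is the concentration that stops growth completely.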
Legend:
Test in all cases: NCI-60 cell line screen, 48 h
[1] = test system: NCI-H460 lung
[2] = test system: RPMI-8226 leukemia
[3] = test system: SNB-75 CNS
[4] = test system: MOLT-4 leukemia
[5] = test system: HOP-92 NSCLC
[6] = test system: NCI/ADR-RES ovarian
[7] = test system: EKVX NSCLC
[8] = test system: K-562 leukemia
[9] = test system: RXF 393 renal
[10] = test system: UACC-257 melanoma
[11] = test system: MDA-N
[12] = test system: SK-MEL-5 melanoma
[13] = test system: UO-31 renal
[14] = test system: MDA-MB-231 breast
[15] = test system: BT-549 breast
[16] = test system: UACC-62 melanoma
[17] = test system: HS 578T breast
[18] = test system: HOP-62 NSCLC
[19] = test system: SK-MEL-2 melanoma
[20] = test system: U251 CNS
[21] = test system: M14 melanoma
[22] = test system: SF-539 CNS
[23] = test system: MALME-3M melanoma
[24] = test system: 786-0 renal
[25] = test system: IGROV1 ovarian
[26] = test system: CCRF-CEM leukemia
[27] = test system: NCI-H226 lung
[28] = test system: OVCAR-5 ovarian
[29] = test system: SF-295 CNS
[30] = test system: A498 renal
[31] = test system: OVCAR-3 ovarian
[32] = test system: HCT-116 colon
[33] = test system: NCI-H23 lung
[34] = test system: MCF7 breast
[35] = test system: OVCAR-8 ovarian
[36] = test system: PC-3 prostate
[37] = test system: HL-60(TB) leukemia
[38] = test system: NCI-H522 lung
[39] = test system: SW-620 colon
[40] = test system: SNB-19 CNS
[41] = test system: SK-OV-3 ovarian
[42] = test system: SR leukemia
[43] = test system: A549 NSCLC
[44] = test system: OVCAR-4 ovarian
[45] = test system: LOX IMVI melanoma
[46] = test system: DU-145 prostate
[47] = test system: SN12C renal
[48] = test system: MDA-MB-435
[49] = test system: SF-268 CNS
[50] = test system: SK-MEL-28 melanoma
[51] = test system: KM12 colon
[52] = test system: HCT-15 colon
[53] = test system: ACHN renal
[54] = test system: HT29 colon
[55] = test system: COLO 205 colon
[56] = test system: HCC-2998 colon
[57] = test system: TK-10 renal
[58] = test system: CAKI-1 renal
[59] = test system: T-47D breast

N#Cc1ccccc1CSc1ncnc2nc[nH]c12
GI50 [1]: 83.3 µM | GI50 [2]: 53.1 µM | GI50 [3]: 9.8 µM | TGI [3]: 67.1 µM | GI50 [4]: 80.3 µM | GI50 [5]: 28.6 µM | GI50 [6]: 60.4 µM | GI50 [7]: 90.1 µM | GI50 [8]: 67.2 µM | GI50 [9]: 94.9 µM | GI50 [10]: 44.5 µM | GI50 [11]: 83.3 µM | GI50 [12]: 74.3 µM | GI50 [13]: 47.4 µM | GI50 [14]: 51 µM | GI50 [15]: 56.6 µM | GI50 [16]: 77.2 µM | GI50 [17]: 51.9 µM

O=C1CC(c2cccc([N+](=O)[O-])c2)C2(C(=O)NC(=O)NC2=O)C(c2cccc([N+](=O)[O-])c2)C1 (centres undefined)
TGI [18]: > 100 µM | TGI [19]: > 100 µM | TGI [1]: > 100 µM | TGI [20]: > 100 µM | TGI [21]: > 100 µM | TGI [22]: > 100 µM | TGI [23]: 61.8 µM | TGI [24]: > 100 µM | TGI [25]: > 100 µM | TGI [26]: > 100 µM | TGI [27]: > 100 µM | TGI [28]: > 100 µM | TGI [2]: > 100 µM | TGI [3]: > 100 µM | TGI [4]: > 100 µM | TGI [29]: > 100 µM | TGI [5]: > 100 µM | TGI [30]: > 100 µM | TGI [6]: > 100 µM | TGI [31]: 58.2 µM | TGI [32]: 42.8 µM | TGI [8]: > 100 µM | TGI [33]: > 100 µM | TGI [9]: 61.1 µM | TGI [34]: 44 µM | TGI [35]: > 100 µM | TGI [36]: > 100 µM | TGI [10]: > 100 µM | TGI [11]: > 100 µM | TGI [37]: > 100 µM | TGI [38]: > 100 µM | TGI [12]: > 100 µM | TGI [39]: > 100 µM | TGI [40]: > 100 µM | TGI [13]: > 100 µM | TGI [41]: > 100 µM | TGI [42]: > 100 µM | TGI [43]: > 100 µM | TGI [44]: > 100 µM | TGI [45]: > 100 µM | TGI [14]: > 100 µM | TGI [46]: > 100 µM | TGI [47]: > 100 µM | TGI [48]: > 100 µM | TGI [15]: > 100 µM | TGI [49]: 84.1 µM | TGI [16]: > 100 µM | TGI [50]: > 100 µM | TGI [51]: > 100 µM | TGI [52]: > 100 µM | TGI [53]: > 100 µM | TGI [54]: > 100 µM | TGI [55]: > 100 µM | TGI [17]: > 100 µM

Cc1ccc2c3c1O[C@H]1c4[nH]c5ccccc5c4C[C@@]4(O)[C@@H](C2)N(CC2CC2)CC[C@]314
TGI [18]: 33.3 µM | TGI [19]: 31.6 µM | TGI [56]: 12.5 µM | TGI [1]: 30.5 µM | TGI [57]: 31.7 µM | TGI [20]: 28.2 µM | TGI [21]: 32.4 µM | TGI [22]: 31.6 µM | TGI [23]: 28.4 µM | TGI [24]: 27.1 µM | TGI [25]: 32 µM | TGI [26]: 24.6 µM | TGI [27]: 30.5 µM | TGI [28]: 35.1 µM | TGI [2]: 29.4 µM | TGI [4]: 32.9 µM | TGI [29]: 31.1 µM | TGI [5]: 27.5 µM | TGI [30]: 31.8 µM | TGI [6]: 42.2 µM | TGI [7]: 32.9 µM | TGI [31]: 27.5 µM | TGI [32]: 27.9 µM | TGI [8]: 61.1 µM | TGI [33]: 39.5 µM | TGI [9]: 20.8 µM | TGI [34]: 31.5 µM | TGI [35]: 34.3 µM | TGI [36]: 24.9 µM | TGI [10]: 32.8 µM | TGI [11]: 30.5 µM | TGI [37]: 22.4 µM | TGI [38]: 29.5 µM | TGI [12]: 27.8 µM | TGI [39]: 25.4 µM | TGI [40]: 32.2 µM | TGI [13]: 26.8 µM | TGI [41]: 31.5 µM | TGI [42]: 46.8 µM | TGI [43]: 29.7 µM | TGI [44]: 17.8 µM | TGI [45]: 33.1 µM | TGI [14]: 35.6 µM | TGI [46]: 30.5 µM | TGI [47]: 29.1 µM | TGI [58]: 30.4 µM | TGI [48]: 26.8 µM | TGI [15]: 35.7 µM | TGI [49]: 30.1 µM | TGI [16]: 30.1 µM | TGI [59]: 36.6 µM | TGI [50]: 36.4 µM | TGI [51]: 32.5 µM | TGI [52]: 38.1 µM | TGI [53]: 30.9 µM | TGI [54]: 18.7 µM | TGI [55]: 30.8 µM

From PubChem BioAssay (NCI)
